Source: patent US7439380B2, “Diarylbutadiene-substituted diorganopolysiloxanes and photoprotective compositions comprised thereof” (L'Oreal, priority 2003, dated 2008)

Assay: UV absorption spectrum in ethanol
Type: physicochemical
Details: for UV E1% / UV εmax: at λmax

| Compound | UV λmax [nm] | UV E1% | UV εmax |
| --- | --- | --- | --- |
| CCOC(=O)/C(=C/C=C(c1ccccc1)c1ccccc1)C(=O)OCC(C)C[Si](C)(O[Si](C)(C)C)O[Si](C)(C)C (stereo not drawn) [Example 1, monoethyl mono-3-[1,3,3,3-tetramethyl-1-[(trimethylsilyl)oxy]disiloxanyl]-2-methylpropyl 2-(3,3-diphenylprop-2-enylene)malonate] | 333 | 660 | 39 530 |
| C[Si](C)(C)O[Si](C)(CCCOC(=O)/C(C#N)=C\C=C(c1ccccc1)c1ccccc1)O[Si](C)(C)C [Example 3, 3-[1,3,3,3-tetramethyl-1-[(trimethylsilyl)oxy]disiloxanyl]propyl 2-cyano-5,5-diphenylpenta-2,4-dienoate] | 358 | 574 | 30 874 |
| C[Si](C)(C)O[Si](C)(CCCNC(=O)/C(C#N)=C/C=C(c1ccccc1)c1ccccc1)O[Si](C)(C)C [Example 5, N-[3-[1,3,3,3-tetramethyl-1-[(trimethylsilyl)oxy]disiloxanyl]propyl]-2-cyano-5,6-diphenylpenta-2,4-dienamide] | 351 | 515 | 27 650 |
| CC(COC(=O)C(=CC=C(c1ccccc1)c1ccccc1)C(=O)OCC(C)C[Si](C)(O[Si](C)(C)C)O[Si](C)(C)C)C[Si](C)(O[Si](C)(C)C)O[Si](C)(C)C (stereo not drawn) [Example 6] | 330 | 346 | 28 650 |
| CCOC(=O)/C(=C\C=C(c1ccccc1)c1ccccc1)C(=O)NCCC[Si](C)(O[Si](C)(C)C)O[Si](C)(C)C [Example 7, ethyl 4,4-diphenyl-1,3-diene-N-[3-[1,3,3,3-tetramethyl-1-[(trimethylsilyl)oxy]disiloxanyl]propyl]-2-(4,4-diphenylprop-2-ethylene)malonamide] | 335 | 542 | 31 650 |
